Laboratory results published in the NIST ThermoML archive (doi:10.1021/je0502849).

Settings: Liquid, Pulse-echo method

CC(C)CC(C)(C)C [2,2,4-trimethylpentane]
speed of sound [m/s]
Settings	293.15 K	303.15 K	313.15 K	323.15 K	333.15 K	343.15 K	353.15 K	363.15 K	373.15 K
100 kPa	1104.6	1061.7	1019.1	977.9	935.8	897.3	858.2	817.2	780.4
10000 kPa	1178.5	1139.3	1100.9	1063.5	1026.6	992.6	958	924.3	891
20000 kPa	1244.6	1208.6	1173	1138.8	1105.2	1071.6	1041.7	1011.1	980.7
30000 kPa	1304.8	1270.2	1237	1204.7	1173	1142.7	1114.1	1085.5	1057.5
40000 kPa	1358.5	1326.8	1295.2	1264.6	1234.2	1205.7	1178.7	1151.4	1125.2
50000 kPa	1410.3	1378.5	1349.3	1319	1290.2	1262.9	1236.1	1211.3	1185.9
60000 kPa	1458.1	1427	1397.6	1369.8	1341.8	1315.4	1290.4	1265.7	1242.1
70000 kPa	1502.5	1472.6	1443.4	1416.6	1390	1363.5	1339.5	1316.6	1293.1
80000 kPa	1544.7	1515.6	1487.6	1461.2	1434.9	1410.8	1386.8	1364.4	1341.5
90000 kPa	1584.5	1556.4	1529	1503.4	1479	1453.6	1431	1408.2	1386
100000 kPa	1622.6	1594.5	1568.7	1543.4	1519	1495.3	1472.5	1449.9	1428.5
110000 kPa	1658.9	1632.1	1605.9	1581.4	1557.7	1534	1512.1	1490.6	1469.2
120000 kPa	1694	1667.5	1641.7	1617.8	1594.1	1571.7	1549.6	1529	1508.2
130000 kPa	1727.5	1701.6	1676.3	1653.1	1629.5	1607.2	1585.9	1565.5	1545.1
140000 kPa	1760.1	1734.3	1709.4	1686.4	1663.5	1641.7	1620.5	1600.8	1580.3
150000 kPa	1791.1	1766.4	1741.7	1718.6	1696.2	1675	1654.1	1634.2	1614

CCC(C)C(C)C (configuration not stated) [2,3-dimethylpentane]
speed of sound [m/s]
Settings	293.15 K	303.15 K	313.15 K	323.15 K	333.15 K	343.15 K	353.15 K	363.15 K	373.15 K
100 kPa	1149.5	1103.2	1061.2	1017.4	973.7	931	889.5	849.4	808.9
10000 kPa	1220.2	1178.6	1138	1099.7	1061.7	1022.5	986.1	950.4	914.8
20000 kPa	1284.8	1245.9	1207.8	1171.8	1136.5	1101.8	1067.4	1035.4	1003.1
30000 kPa	1342.3	1306.5	1270.7	1236.2	1203.1	1170.5	1138.8	1108.4	1079
40000 kPa	1396.2	1361.5	1327.2	1294.8	1263.1	1232	1201.8	1173.6	1145.4
50000 kPa	1445.3	1411.9	1379.5	1348.2	1317.7	1287.5	1259.9	1232.3	1205.1
60000 kPa	1491.9	1458.5	1428.2	1397.8	1368.8	1339.8	1312.3	1286.2	1260.3
70000 kPa	1535.2	1503.4	1473.4	1444.3	1416	1388.3	1361.7	1336.7	1311.6
80000 kPa	1576.5	1545.5	1516.6	1488.2	1460.6	1433.1	1407.9	1383.4	1358.8
90000 kPa	1616.1	1585.9	1557.2	1529.5	1502.6	1476.4	1451	1427.8	1403.8
100000 kPa	1653	1623.9	1595.8	1569.1	1542.8	1516.8	1492.5	1469.5	1446.4
110000 kPa	1688.6	1660	1632.9	1606.4	1580.5	1555.6	1531.5	1508.7	1486.3
120000 kPa	1723.2	1694.7	1668.4	1642.2	1617.1	1592.3	1569.2	1546.8	1524.6
130000 kPa	1756.3	1728.8	1702.5	1676.9	1652.2	1627.9	1604.7	1583	1561.1
140000 kPa	1788	1760.4	1735.5	1713.3	1685.7	1661.8	1639.3	1617.8	1596.4
150000 kPa	1818.6	1792.3	1766.7	1742.2	1718.3	1694.8	1672.8	1650.9	1630.2

CCCC(C)C [2-methylpentane]
speed of sound [m/s]
Settings	293.15 K	303.15 K	313.15 K	323.15 K	333.15 K	343.15 K	353.15 K	363.15 K	373.15 K
100 kPa	1064.6	1016.5	971.8	927.3	–	–	–	–	–
10000 kPa	1145.5	1102.8	1061.7	1022	982.1	943.2	905	867.4	830.7
20000 kPa	1215.4	1176	1138.5	1101.2	1065.4	1030.2	996.4	962.8	931.1
30000 kPa	1277.6	1240.8	1205.5	1170.8	1137.2	1104.8	1073.6	1042.9	1013
40000 kPa	1334.9	1299.5	1265.9	1233.9	1201.3	1170.9	1141	1112.8	1084.6
50000 kPa	1386.9	1352.6	1321.2	1289.9	1260.2	1230.4	1201.8	1174.7	1148.2
60000 kPa	1434.8	1403	1372.2	1342.1	1313.1	1284.6	1257.8	1231.7	1206.3
70000 kPa	1480.4	1449.6	1419.4	1391.6	1363.4	1335.3	1309.7	1284.1	1259.6
80000 kPa	1523.4	1492.9	1464	1436	1408.6	1381.8	1356.7	1332.7	1309
90000 kPa	1564	1534.6	1506.3	1478.4	1452.5	1426.6	1402.3	1378.4	1354.6
100000 kPa	1602.3	1573.5	1546.3	1519.2	1493.6	1468.3	1444.8	1421.9	1399
110000 kPa	1638.5	1610.7	1584.2	1558.7	1532.6	1508.4	1485.1	1462.6	1440.8
120000 kPa	1674.4	1646.9	1620.7	1595.2	1570	1546.2	1523.3	1501.1	1479.6
130000 kPa	1708.1	1681.6	1655.7	1630.8	1605.9	1582.5	1560	1538.3	1517.1
140000 kPa	1740.8	1714.3	1689.6	1664.2	1640.4	1617.2	1595.2	1573.9	1553
150000 kPa	1771.8	1746.6	1721.4	1696.8	1673	1650.2	1628.8	1607.8	1587.5
